What was measured:
Assay in all cases: relative viability (nuclei count vs DMSO), 5 days (fraction); higher = more cells survive
Bortezomib + Alpelisib = compound: CC(C)C[C@H](NC(=O)[C@H](Cc1ccccc1)NC(=O)c1cnccn1)B(O)O [Bortezomib] + Cc1nc(NC(=O)N2CCC[C@H]2C(N)=O)sc1-c1ccnc(C(C)(C)C(F)(F)F)c1 [Alpelisib] (partner 2 µM)
Summary of the method: (§1)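 Lung cancer cell lines in 1536-well plates got either a single drug or a fixed anchor-drug dose together with five library-drug doses (not always all listed) in √10 steps, by pin tool, on the day after seeding. Nuclei were counted after 5 days, and relative viability is the treated-to-vehicle ratio of nuclei counts. Values are medians of duplicate plates.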

[1] = compound: CC1=CC(=NN1)NC2=CC(=NC(=N2)/C=C/C3=CC=CC=C3)N4CCN(CC4)C + CS(=O)(=O)CCNCc1ccc(-c2ccc3ncnc(Nc4ccc(OCc5cccc(F)c5)c(Cl)c4)c3c2)o1 [Lapatinib] (partner 2 µM)
Summary of the method: as §1

Bortezomib + Luminespib = compound: CC(C)C[C@H](NC(=O)[C@H](Cc1ccccc1)NC(=O)c1cnccn1)B(O)O [Bortezomib] + CCNC(=O)c1noc(-c2cc(C(C)C)c(O)cc2O)c1-c1ccc(CN2CCOCC2)cc1 [Luminespib] (partner 0.01 µM)
Summary of the method: as §1

Obatoclax + AZD7762 = compound: COC1=CC(c2cc3ccccc3[nH]2)=N/C1=C\c1[nH]c(C)cc1C [Obatoclax] + NC(=O)Nc1cc(-c2cccc(F)c2)sc1C(=O)N[C@H]1CCCNC1 [AZD7762] (partner 0.2 µM)
Summary of the method: as §1

| Cell Line | relative viability (Bortezomib + Alpelisib; first compound 0.0002 µM) | relative viability (Bortezomib + Alpelisib; first compound 0.000632 µM) | relative viability (Bortezomib + Alpelisib; first compound 0.002 µM) | relative viability (Bortezomib + Alpelisib; first compound 0.006325 µM) | relative viability (Bortezomib + Alpelisib; first compound 0.02 µM) | relative viability ([1]; first compound 0.08 µM) | relative viability ([1]; first compound 0.253 µM) | relative viability ([1]; first compound 0.8 µM) | relative viability ([1]; first compound 2.53 µM) | relative viability ([1]; first compound 8 µM) | relative viability (Bortezomib + Luminespib; first compound 0.0002 µM) | relative viability (Bortezomib + Luminespib; first compound 0.000632 µM) | relative viability (Bortezomib + Luminespib; first compound 0.002 µM) | relative viability (Bortezomib + Luminespib; first compound 0.006325 µM) | relative viability (Bortezomib + Luminespib; first compound 0.02 µM) | relative viability (Obatoclax + AZD7762; first compound 0.01 µM) | relative viability (Obatoclax + AZD7762; first compound 0.03162 µM) | relative viability (Obatoclax + AZD7762; first compound 0.1 µM) | relative viability (Obatoclax + AZD7762; first compound 0.3162 µM) | relative viability (Obatoclax + AZD7762; first compound 1 µM) |
| --- | --- | --- | --- | --- | --- | --- | --- | --- | --- | --- | --- | --- | --- | --- | --- | --- | --- | --- | --- | --- |
| NCI-H2009 | 1.13 | 1.19 | 1.14 | 0.543 | 0.0447 | 0.907 | 0.628 | 1.03 | 0.451 | 0.189 | 0.954 | 0.988 | 1.06 | 0.803 | 0.0826 |  |  |  |  |  |
| NCI-H2023 | 0.525 | 0.612 | 0.74 | 0.383 | 0.0813 | 0.849 | 0.92 | 0.765 | 0.0727 | 0.0496 | 0.638 | 0.694 | 0.789 | 0.118 | 0.0549 |  |  |  |  |  |
| NCI-H2228 | 0.796 | 0.748 | 0.411 | 0.111 | 0.102 | 1.16 | 0.85 | 0.685 | 0.103 | 0.0435 | 0.129 | 0.117 | 0.137 | 0.0914 | 0.093 |  |  |  |  |  |
| NCI-H2342 |  |  |  |  |  |  |  |  |  |  | 1.01 | 0.748 | 0.699 | 0.791 | 0.382 | 0.614 | 0.392 | 0.51 | 0.363 | 0.389 |
| SK-LU-1 | 1.09 | 0.963 | 0.551 | 0.154 | 0.149 | 0.861 | 0.959 | 0.699 | 0.386 | 0.116 | 0.218 | 0.205 | 0.201 | 0.155 | 0.118 |  |  |  |  |  |
| SK-MES-1 | 0.86 | 0.723 | 0.825 | 0.475 | 0.206 | 0.44 | 0.52 | 0.453 | 0.329 | 0.146 | 0.801 | 0.763 | 0.72 | 0.166 | 0.156 |  |  |  |  |  |
| SW 900 |  |  |  |  |  |  |  |  |  |  | 0.167 | 0.198 | 0.184 | 0.163 | 0.16 | 0.588 | 0.489 | 0.671 | 0.46 | 0.519 |
| SW 1573 | 0.833 | 0.774 | 0.813 | 0.164 | 0.0782 | 1.08 | 1.34 | 1.11 | 0.906 | 0.134 | 0.162 | 0.222 | 0.214 | 0.0768 | 0.0532 |  |  |  |  |  |
| UMC-11 | 0.842 | 0.994 | 1.09 | 0.223 | 0.136 | 0.9 | 0.758 | 0.63 | 0.152 | 0.128 | 0.871 | 0.978 | 0.972 | 0.597 | 0.167 |  |  |  |  |  |

Source: the supplement of paper PMC10307832
